Patent US9629822B2, “Flavonoid based antiviral targets” (UNIVERSITY OF CENTRAL FLORIDA RESEARCH FOUNDATION, INC., priority 2012, dated 2017)
Like-named read-outs stand apart in the source and are kept apart here.

Key:
US28 receptor = molecular target: T1, US28 receptor (Human cytomegalovirus, UniProt P69332); test: PathDetect trans Elk1 luciferase reporter gene assay in US28-transfected 293T HEK cells; assay type: cell-based, Human Cytomegalovirus (HCMV); details: for EC50: 293T HEK cells transiently expressing US28, Elk1 reporter; for Emax: read-out: Efficacy(%), maximum intrinsic activity from dose-response curve; for type of activity on the US28 receptor (agonist / inverse agonist / none), in words: Elk1 reporter, US28-transfected HEK cells
T1 construct: expressed in transfected cells; host or cells: HEK 293T cells, transiently transfected
T1 sequence (P69332 whole entry): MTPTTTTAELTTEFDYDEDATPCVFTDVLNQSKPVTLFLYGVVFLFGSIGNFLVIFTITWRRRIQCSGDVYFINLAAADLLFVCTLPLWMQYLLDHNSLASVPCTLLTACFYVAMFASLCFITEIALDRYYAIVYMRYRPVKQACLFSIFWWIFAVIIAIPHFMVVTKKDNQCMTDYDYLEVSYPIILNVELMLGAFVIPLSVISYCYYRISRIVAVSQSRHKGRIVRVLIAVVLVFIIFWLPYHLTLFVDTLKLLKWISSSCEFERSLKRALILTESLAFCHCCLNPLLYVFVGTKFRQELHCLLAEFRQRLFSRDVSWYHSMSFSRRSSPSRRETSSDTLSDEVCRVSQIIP
Excerpt: Having generated a homologous series of chalcones and flavones, their ability to interact with the US28 receptor in human embryonic kidney (HEK) cells was investigated using an Elk-1 gene reporter assay (FIG. 2). HEK cells were transfected with either an empty vector (i.e., mock cells) or with a vector carrying US 28. These matched HEK cells provided a means to evaluate off-target effects as well as innate drug toxicity. As many of the flavonoid drugs were not water-soluble, all drug stock solutions were made in 100% dimethylsulfoxide (DMSO). The final DMSO concentration for each cell-based experiment, however, was 1% DMSO. To account for the presence of DMSO, 1% DMSO controls were run in parallel. […] values of the homologous series were also determined in Chinese hamster ovary (CHO) cells in order to assess the relative toxicities of each member of the series in a different cell line (see Table 1).
Interaction with the US28 receptor was measured by a decrease in luminescence using a firefly (Photinus pyralis) luciferase-based PathDetect Elk1 gene reporter assay (FIG. 2).^23,24 This assay assessed the modulation of US28-mediated activation of mitogen-activated protein kinase (MAPK) signaling pathways (results are shown in Table 1). […] Such compounds which reduce MAPK signaling will have direct utility in the treatment of proliferative disorders including but not limited cancer.
After transfection the US28 is expressed and activates MAPK. The MAPK phosphorylates the activator domain of the GAL4dbd/Elk1 fusion protein, and causes its dimerization. The dimer then binds to the GAL4 UAS region of the reporter gene and allows for luciferase transcription. The luciferase mRNA is then translated and the luciferase protein is detected via luminescence by the use of the Bright-Glo reagent.
(§1) The efficacy of each compound on the US28 receptor was investigated in luciferase based reporter gene assay PathDetect trans Elk1 (Agilent, Stratagene)^23 as described previously.^13 Briefly, the human embryonic kidney (HEK) 293T cells were transiently-transfected with 0.1 μg Elk1, 5 μg Luc, and 5 μg of US28 vector or empty pcDNA3 vector (mock cells). Five hours after transfection, the cells were washed with DMEM containing 1% FBS, harvested, seeded in a white half-area 96-well plate (20,000 cells/well) and incubated with the indicated concentrations of test compounds. The incubation buffer consisted of DMEM, 1% FBS, 2 mM L-glutamine, 1% penicillin-streptomycin and 1% DMSO. The cells were incubated at 37° C. in the humid atmosphere with 5% CO2 for an additional 20-24 hours. The luciferase substrate BrightGlo (Promega) was used according to the manufacturer's instruction. The luminescence intensity was acquired using microplate reader Victor3V (Perkin-Elmer). The basal luminescence of mock transfected cells was approximately 500 RLU and the basal luminescence of US28-transfected cells was 4-5-fold higher (2000-2500 RLU). As the inhibitors gave differential responses in terms of their ability to reduce US 28 mediated signaling, their relative EC50 values were determined by dosing the US-28 transfected HEK cells with increasing concentrations of each compound. In this case, the EC50 value is the concentration of the compound needed to provoke a response halfway between the compound's maximal response (change in luminescence) and the no-compound control in the same US-28 transfected cell line. A plot of relative luminescence versus log of the compound concentration provided a dose-response curve from which the % efficacy was derived via non-linear regression methods using the algorithms in PRISM 5.0 (GraphPad Software, San Diego, Calif.).

[1] = tested on: mock transfected 293T HEK cells; test: PathDetect Elk1 luminescence in mock transfected (empty pcDNA3 vector) 293T HEK cells, off-target effect; assay type: cell-based, human; details: Homo sapiens, 10 μM vs 1% DMSO control, Equation 1; read-out: Effect(%) on mock cells with each drug at 10 μM
Description: As a control, the empty pcDNA3 plasmid vector and the components of PathDetect system were also used for mock transfection of 293T HEK cells. Controls containing 1% DMSO were run in parallel. The relative luminescence results found with mock transfected 293T HEK cells treated with 10 μM drug and the untreated 1% DMSO control were compared via the following Equation 1. % Effect on mock cells=(100%×(mock cell luminescence/DMSO control luminescence))−100% Equation (1)
This equation was derived in order to assess the net effect each compound had on non-US28 containing HEK cells transfected via the same protocol. These control experiments were critical as they provided a method to address off target effects such as compound toxicity, which could give rise to false positives in the PathDetect assay.
Compounds, which had no off-target effects, gave nearly identical luminescence values in both the mock cells and the 1% DMSO control (i.e., a mock cell luminescence/DMSO control luminescence ratio of 1) and a net effect of 0% via Equation 1 (e.g., 9j: 0% in Table 1). In contrast, compounds that were stimulatory to the treated HEK cells gave higher mock cell luminescence than the DMSO control, a ratio >1, and a net positive value in Equation 1 for the % effect on mock cells (e.g., 8f: 290%). On the other hand, compounds that were intrinsically toxic gave lower luminescence in the treated mock cells than the DMSO control, a ratio below 1, and a net negative value for the % effect on mock cells (e.g., 8d: ˜42%).
as §1

CHO cells = test: CHO cell toxicity, MTS assay, 48 h; assay type: cell-based, Chinese hamster; details: Cricetulus griseus, CHO, 37° C., MTS reagent, read-out: CHO 48 h IC50 value
Description: In each case, the chalcone system 8 was more toxic than the corresponding ring-closed system, 9.
The CHO assay was conducted to assess the general toxicity of each flavonoid drug. Briefly, cell growth was assayed in sterile 96-well microtiter plates (Costar 3599, Corning, N.Y., USA) in the presence of each drug. Experiments were conducted in triplicate. CHO cells were plated at 10,000 cells/mL. Drug solutions were prepared in 100% DMSO and dosed so that the final DMSO concentration was <1%. For example, 1 μL of drug solution was added to the CHO cells plated in each well in 100 μL of media. Drug additions occurred after an initial overnight incubation of CHO cells in each well. After drug was added, the cells were incubated in 5% CO2 for 48 h at 37° C. The MTS reagent (Promega Cell Titer 96 Aqueous non-radioactive cell proliferation reagent) was added (20 μL) and the CHO cells were incubated for an additional 4h and then absorbance at 490 nm was measured on a BioTek Synergy MX plate reader. […] IC50 values were determined from the corresponding plot of relative absorbance at 490 nm vs drug concentration.

[2] = TZMbI assay for cell safety (cell viability and growth, CytoTox Glo); details: human, TZMbI cells, read-out: % decrease in viability compared to 0.1% DMSO vehicle based on viable cell luminescence
Description: Assays were performed below in accordance with the procedures set forth in The Journal of Immunology, 2006, 176, pp. 6900-905; AIDS Research and Human Retroviruses, 2004, 20:11, pp. 1157-1665.^32,33 TZMbI assays for cell safety were performed to identify potential anti-viral compounds. TZMbI assays for cell safety were performed to identify potential anti-viral compounds per the methods.

HIV-1 BaL = test: Anti-HIV assay (luciferase, HIV-1 BaL infection); assay type: cell-based
Description: Assays were performed below in accordance with the procedures set forth in The Journal of Immunology, 2006, 176, pp. 6900-905; AIDS Research and Human Retroviruses, 2004, 20:11, pp. 1157-1665.^32,33 Cells were treated with 2 ng/mL p24 of HIV-1 BaL administered; MOI approx 0.02 (see refs 32, 33). Cells were treated with 2 ng/mL p24 of HIV-1 BaL administered; MOI approx 0.02 (see refs 32, 33).

[3] = EC50 (μM), NE = no effect when tested at 10 μM of compound
[4] = 10 μM, Experiment 1B, 2 ng/mL p24 HIV-1 BaL
[5] = Human immunodeficiency virus 1, BAL, 10 μM, Experiment 1B, 2 ng/mL p24 HIV-1 BaL
[6] = NE = no effect when tested at 10 μM of compound
[7] = Human immunodeficiency virus 1, BAL, 5 μM, Experiment 2B
[8] = Human immunodeficiency virus 1, BAL, 10 μM, Experiment 2B
[9] = Human immunodeficiency virus 1, BAL, 20 μM, Experiment 2B

SMILES	EC50 (US28 receptor; [3]) [µM]	Emax (US28 receptor; negative = inverse agonism) [%]	activation at 10 µM [1] [%]	IC50 (CHO cells) [µM]	cytotoxicity at 10 μM ([2]; Experiment 1A) [%]	RLU (relative luciferase units) (HIV-1 BaL; [4]) [RLU]	inhibition at 10 µM (HIV-1 BaL; [5]) [%]	melting point [°C]	EC50 (US28 receptor; [6]) [µM]	cytotoxicity at 5 μM ([2]; Experiment 2A) [%]	cytotoxicity at 10 μM ([2]; Experiment 2A) [%]	cytotoxicity at 20 μM ([2]; Experiment 2A) [%]	RLU (relative luciferase units) (HIV-1 BaL; 5 μM, Experiment 2B) [RLU]	RLU (relative luciferase units) (HIV-1 BaL; 10 μM, Experiment 2B) [RLU]	RLU (relative luciferase units) (HIV-1 BaL; 20 μM, Experiment 2B) [RLU]	inhibition at 5 µM (HIV-1 BaL; [7]) [%]	inhibition at 10 µM (HIV-1 BaL; [8]) [%]	inhibition at 20 µM (HIV-1 BaL; [9]) [%]	type of activity on the US28 receptor (agonist / inverse agonist / none), in words (US28 receptor)	also measured
COc1cc(OC)c(/C=C/C(=O)c2ccccc2O)cc1Br [Compound 8e, (E)-3-(5-bromo-2,4-dimethoxyphenyl)-1-(2-hydroxyphenyl)prop-2-en-1-one]	4.9	~55	5	16.9 ± 1.3	4.1	671.4	29	153 to 157												
COc1cc(Br)cc(-c2oc3ccccc3c(=O)c2O)c1OC [Compound 9d, 2-(5-Bromo-2,3-dimethoxyphenyl)-3-hydroxy-4H-chromen-4-one]				> 100	-7.3	452.5	51.7	153 to 158	> 10	-7.87	-18.6	-23.7	10.04	25.14	41.25	-7.87	-18.6	-23.7		cytotoxicity at 40 μM ([2]; 40 μM, Experiment 2A): -33.1%; cytotoxicity at 80 μM ([2]; 80 μM, Experiment 2A): -8.38%; RLU (relative luciferase units) (HIV-1 BaL; 40 μM, Experiment 2B): 68.82 RLU; RLU (relative luciferase units) (HIV-1 BaL; 80 μM, Experiment 2B): 59.85 RLU; inhibition at 40 µM (HIV-1 BaL; Human immunodeficiency virus 1, BAL, 40 μM, Experiment 2B): -33.1%; inhibition at 80 µM (HIV-1 BaL; Human immunodeficiency virus 1, BAL, 80 μM, Experiment 2B): -8.38%
CCOc1ccc(Cl)cc1-c1oc2ccccc2c(=O)c1O [Compound 9i, 2-(5-chloro-2-ethoxyphenyl)-3-hydroxy-4H-chromen-4-one]		-41		> 100	21.8	361.0	61.4	156 to 159		10.7	18.7	21.6	204.06	159.94	81.12	26.1	41.5	74.6	inhibited US28 activity	EC50 (US28 receptor; pEC50 ± SEM): 0.309 µM; cytotoxicity at 1.25 μM ([2]; 1.25 μM, Experiment 2A): 10.8%; cytotoxicity at 2.5 μM ([2]; 2.5 μM, Experiment 2A): 6.19%; RLU (relative luciferase units) (HIV-1 BaL; 1.25 μM, Experiment 2B): 254.23 RLU; RLU (relative luciferase units) (HIV-1 BaL; 2.5 μM, Experiment 2B): 238.44 RLU; inhibition at 1.25 µM (HIV-1 BaL; Human immunodeficiency virus 1, BAL, 1.25 μM, Experiment 2B): 2.53%; inhibition at 2.5 µM (HIV-1 BaL; Human immunodeficiency virus 1, BAL, 2.5 μM, Experiment 2B): 8.25%
COc1ccc(Br)cc1-c1cc(=O)c2ccccc2o1 [Compound 11d, 2-(5-Bromo-2-methoxyphenyl)-4H-chromen-4-one]	8.1	-55		> 100	23.6	576.3	38.4	161 to 164											inverse agonism	Efficacy(%) (US28 receptor; maximum intrinsic activity from dose-response curve, negative = inverse agonism): −55%
COc1ccc(Cl)cc1C1CC(=O)c2ccccc2O1 (stereo not drawn) [Compound 13h, 2-(5-Chloro-2-methoxyphenyl)chroman-4-one]	> 10		-14					51 to 60	> 10										did not have any significant effect	
